From US20240174690A1, “ANNULATED 2-AMINO-3-CYANO THIOPHENES AND DERIVATIVES FOR THE TREATMENT OF CANCER” (BOEHRINGER INGELHEIM INTERNATIONAL GMBH, priority 2021, published 2024)
Read-outs that look alike come from different tables or passages of the source.

Tests used:
KRAS (WT)::SOS1 = KRAS (WT)::SOS1 (Homo sapiens (Human), UniProt P01116, C118S); assay: KRAS::SOS1 AlphaScreen binding assay, KRAS WT
Text: This assay can be used to examine the potency with which compounds according to the invention binding to (mutated) KRAS inhibit the protein-protein interaction between SOS1 and (mutated) KRAS e.g., KRAS WT, KRAS G12C, KRAS G12D, KRAS G12V, KRAS G13D. […] Low IC50 values in this assay setting are indicative of strong inhibition of protein-protein interaction between SOS1 and KRAS:
These assays measure the inhibitory effect of compounds on KRAS mutant protein-protein interactions using the Alpha Screen technology by Perkin Elmer.
The following (mutant) enzyme forms of KRAS and interacting proteins are used in these assays at the given concentrations: • KRAS (G12D) 1-169, N-terminal 6His-tag, C-terminal avi-tag (Xtal BioStructures, Inc.); final assay concentration 10 nM and SOS1 564-1049, N-terminal 229 GST-tag, TEV cleavage site (Viva Biotech Ltd); final assay concentration 5 nM; • KRAS (G12C) 1-169, N-terminal 6His-tag for purification, cleaved off, C-terminal avi-tag, biotinylated, mutations: C51S, C80L, C118S (in house); final assay concentration 7.5 nM and SOS1 564-1049, N-terminal 229 GST-tag, TEV cleavage site (Viva Biotech Ltd); final assay concentration 5 nM; • KRAS (G12V) 1-169, N-terminal 6His-tag for purification, cleaved off, C-terminal avi-tag, biotinylated, TEV cleavage site, mutation: C118S, GDP loaded (in house); final assay concentration 10 nM and SOS1 564-1049, N-terminal 229 GST-tag, TEV cleavage site (Viva Biotech Ltd); final assay concentration 10 nM; • KRAS (G13D) 1-169, N-terminal 6His-tag for purification, cleaved off, C-terminal avi-tag, biotinylated, TEV cleavage site, mutation: C118S, GDP loaded (in house); final assay concentration 10 nM and SOS1 564-1049, N-terminal 229 GST-tag, TEV cleavage site (Viva Biotech Ltd); final assay concentration 10 nM; • KRAS (WT) 1-169, N-terminal 6His-tag for purification, cleaved off, C-terminal avi-tag, biotinylated, TEV cleavage site, mutation: C118S, GDP loaded (in house); final assay concentration 10 nM and SOS1 564-1049, N-terminal 229 GST-tag, TEV cleavage site (Viva Biotech Ltd); final assay concentration 10 nM.
Test compounds dissolved in DMSO are dispensed onto assay plates (Proxiplate 384 PLUS, white, PerkinElmer; 6008289) using an Access Labcyte Workstation with the Labcyte Echo 55×. For the chosen highest assay concentration of 100 μM, 150 nL of compound solution are transferred from a 10 mM DMSO compound stock solution. A series of eleven fivefold dilutions per compound are transferred to the assay plate, compound dilutions are tested in duplicates. DMSO are added as backfill to a total volume of 150 nL.
The assays run on a fully automated robotic system in a darkened room below 100 Lux. To 150 nl of compound dilution 10 μl of a mix including KRAS mutant protein, SOS1 (final assay concentrations see above) and GDP nucleotide (Sigma G7127; final assay concentration 10 μM) in assay buffer (1×PBS, 0.1% BSA, 0.05% Tween 20) are added into columns 1-24.
After 30 minutes incubation time 5 μl of Alpha Screen bead mix in assay buffer are added into columns 1-23. Bead mix consists of AlphaLISA Glutathione Acceptor Beads (PerkinElmer, Cat No AL109) and AlphaScreen Streptavidin Donor Beads (PerkinElmer Cat No 6760002) in assay buffer at a final assay concentration of 10 μg/ml each.
Plates are kept at room temperature in a darkened incubator. After an additional 60 minutes incubation time the signal is measured in a PerkinElmer Envision HTS Multilabel Reader using the AlphaScreen specs from PerkinElmer.
Each plate contains up to 16 wells of a negative control depending on the dilution procedure (platewise or serial) (DMSO instead of test compound; with KRAS mutant::SOS1 GDP mix and bead mix; column 23) and 16 wells of a positive control (DMSO instead of test compound; with KRAS mutant::SOS1 GDP mix w/o bead mix; column 24).
As internal control known inhibitors of KRAS mutant::SOS1 interaction can be measured on each compound plate. […]

KRAS (G12D)::SOS1 = KRAS (G12D)::SOS1 (Homo sapiens (Human), UniProt P01116, G12D); assay: KRAS::SOS1 AlphaScreen binding assay, KRAS G12D
Procedure, shortened: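 AlphaScreen measurement of compound disruption of biotinylated, GDP-loaded KRAS 1-169 (10 nM; G12C 7.5 nM) binding to GST-SOS1 564-1049 (5 nM with G12D/G12C, 10 nM otherwise), with 10 μM GDP in PBS/0.1% BSA/0.05% Tween 20. Timing was 30 min compound preincubation, then 60 min with beads at room temperature; top concentration 100 μM, 4-parameter IC50.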

MKN1 cells = assay: MKN1 CTG proliferation assay (120 h) (gastric cancer, wt amplified); type: cell-based; details: Homo sapiens
Experimental: MKN1 CTG Proliferation Assay (120 h) (Gastric Cancer, Wt Amplified)
MKN1 cells (JCRB0252) are dispensed into white 384-well plates, flat and white bottom (Corning Costar, PNr.: 3570) at a density of 400 cells per well in 50 μL RPMI 1640 (PAN-Biotech, PNr.: P04-18047)+10% FCS (HyClone, PNr.: SH30084.03) (assay 1) or into white 384-well plates, flat and white bottom (Perkin Elmer, 6007680) at a density of 500 cells per well in 40 μl RPMI (Gibco, PNr.: 21875034)+10% FCS (HyClone, PNr.: SH30084.03) (assay 2) or into black 384-well plates, flat and clear bottom (Greiner, PNr. 781091) at a density of 200 cells per well in 60 μl RPMI-1640 (Gibco #A10491)+10% FCS (HyClone, PNr.: SH30084.03)+PenStrep (Gibco, PNr.15140-122) (assay 3). […] Compounds (10 mM stock in DMSO) are added at logarithmic dose series using the HP Digital Dispenser D300 (Tecan) (assay 1+2) or the ECHO acoustic liquid handler system (Beckman Coulter) (assay 3), including DMSO controls and normalizing for added DMSO. Plates are incubated for 120 h, and cell viability is measured using CellTiter-Glo luminescent cell viability reagent (Promega product code G7570). Viability (stated as percent of control) is defined as relative luminescence units RLU of each well divided by the RLU of cells in DMSO controls. IC50 values are determined from viability measurements by non-linear regression using a four-parameter model.

[1] = MKN-1, assay 3, CTG 120 h, read-out: MKN1 (assay 3) IC50

Sequence of KRAS (G12D)::SOS1 (P01116 other isoform, or with tags, fused parts or gaps G12D): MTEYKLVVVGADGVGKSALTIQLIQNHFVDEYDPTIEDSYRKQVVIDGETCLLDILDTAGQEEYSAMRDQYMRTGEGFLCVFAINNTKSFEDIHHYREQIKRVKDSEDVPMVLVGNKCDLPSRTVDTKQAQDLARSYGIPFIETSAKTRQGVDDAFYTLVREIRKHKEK
Sequence of KRAS (WT)::SOS1 (P01116 other isoform, or with tags, fused parts or gaps C118S): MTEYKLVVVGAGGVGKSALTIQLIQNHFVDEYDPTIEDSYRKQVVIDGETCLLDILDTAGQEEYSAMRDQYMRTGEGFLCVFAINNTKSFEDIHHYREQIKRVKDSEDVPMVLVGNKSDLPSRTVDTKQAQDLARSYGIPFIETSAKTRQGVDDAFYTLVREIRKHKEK

| IC50 (KRAS (WT)::SOS1) [nM] | IC50 (KRAS (G12D)::SOS1) [nM] | IC50 (MKN1 cells; [1]) [nM] | IC50 (MKN1 cells; MKN-1, assay 2, CTG 120 h, read-out: MKN1 (assay 2) IC50) [nM] | Structure (SMILES) |
| --- | --- | --- | --- | --- |
| 10 | 1 | 876 |  | C[C@H](Oc1cc(N2CCN(C)CC2)nc(-c2noc3c2CCC[C@@]32CCCc3sc(N)c(C#N)c32)n1)[C@@H]1CCCN1C [II-55] |
| 5 | 2 | 266 |  | C[C@H](Oc1cc(-c2ccccn2)nc(-c2noc3c2CCC[C@@]32CCCc3sc(N)c(C#N)c32)n1)[C@@H]1CCCN1C [II-85] |
| 5 | 1 | 994 |  | C[C@H](Oc1cc(-n2cc3c(n2)CCNC3)nc(-c2noc3c2CCC[C@@]32CCCc3sc(N)c(C#N)c32)n1)[C@@H]1CCCN1C [II-53] |

The remaining lines, values behind:

| Structure (SMILES) | IC50 (KRAS (WT)::SOS1) [nM] | IC50 (KRAS (G12D)::SOS1) [nM] | IC50 (MKN1 cells; [1]) [nM] | IC50 (MKN1 cells; MKN-1, assay 2, CTG 120 h, read-out: MKN1 (assay 2) IC50) [nM] |
| --- | --- | --- | --- | --- |
| C[C@H](Oc1cc(-c2cncnc2)nc(-c2noc3c2CCC[C@@]32CCCc3sc(N)c(C#N)c32)n1)[C@@H]1CCCN1C [II-82] | 36 | 6 | 712 |  |
| C[C@H](Oc1cc(N2CCNC3(CC3)C2)nc(-c2onc3c2CCC[C@@]32CCCc3sc(N)c(C#N)c32)n1)[C@@H]1CCCN1C [I-5] | 4 | 1 |  | 499 |
| C[C@H](Oc1cc(-n2cncc3ccnc2-3)nc(-c2noc3c2CCC[C@@]32CCCc3sc(N)c(C#N)c32)n1)[C@@H]1CCCN1C [II-105] | 4 | 2 | 426 |  |
| C[C@H](Oc1cc(-c2ccncc2)nc(-c2noc3c2CCC[C@@]32CCCc3sc(N)c(C#N)c32)n1)[C@@H]1CCCN1C [II-78] | 7 | 4 | 533 |  |
